# Test results reported in patent US12370165B2, “Hunger suppression” (TDeltaS Limited, priority 2017, dated 2025).
# What was measured:
# [1] = tested on: plasma glucose; assay: Plasma glucose after study drink (commercial analyzer); assay type: in vivo, human
# Experimental: (§1) A randomised, single-blinded, cross-over study examined the effects of isocaloric ketone ester (KE) and dextrose drinks hunger in healthy, normal-weight participants (n=15) (FIG. 1A). An external Research Ethics Committee (14/LO/0288) approved the study, which was conducted at the University of Oxford in accordance with the Declaration of Helsinki. Participants were healthy, aged 21-42 and with no history of major illness (Anthropometric characteristics in Table 1). Participants provided written informed consent prior to inclusion. Drink order was randomised prior to commencement. Participants refrained from alcohol and caffeine for 24 h prior to each visit and consumed an identical evening meal, at the same time before each visit. Testing started at 0800 h following an overnight (>8 h) fast, with a minimum of 72 h between visits. Venous blood samples (2 ml) were obtained using a 22G catheter inserted into an antecubital vein. […] Blood pHB was measured using a handheld monitor and reagent strips (Precision Xtra, Abbott Diabetes Care, UK). Blood samples were stored on ice, centrifuged and duplicate plasma aliquots stored at −80° C. and analysed within 6 weeks. Plasma glucose was assayed using a commercial analyzer (ABX Pentra, France), whereas insulin, total ghrelin, GLP-1 and PYY were measured using commercially available ELISA assays (Mercodia, Sweden and Merck Millipore, Germany).
# [2] = tested on: PYY; assay: Plasma PYY after study drink (ELISA); assay type: in vivo, human; settings: after 30 min
# Experimental: as §1
# [3] = tested on: GLP-1; assay: Plasma GLP-1 after study drink (ELISA); assay type: in vivo, human; settings: after 30 min
# Experimental: as §1
# [4] = tested on: hunger; assay: Visual-analogue-scale (VAS) for hunger, desire to eat and fullness after study drink; assay type: in vivo, human
# Experimental: A randomised, single-blinded, cross-over study examined the effects of isocaloric ketone ester (KE) and dextrose drinks hunger in healthy, normal-weight participants (n=15) (FIG. 1A). An external Research Ethics Committee (14/LO/0288) approved the study, which was conducted at the University of Oxford in accordance with the Declaration of Helsinki. Participants were healthy, aged 21-42 and with no history of major illness (Anthropometric characteristics in Table 1). Participants provided written informed consent prior to inclusion. Drink order was randomised prior to commencement. Participants refrained from alcohol and caffeine for 24 h prior to each visit and consumed an identical evening meal, at the same time before each visit. Testing started at 0800 h following an overnight (>8 h) fast, with a minimum of 72 h between visits. Venous blood samples (2 ml) were obtained using a 22G catheter inserted into an antecubital vein. Fasting blood samples were collected prior to all interventions and then at regular intervals for 4 h following the study drink. At identical time points, participants completed a validated three-measure visual-analogue-scale (VAS) to assess ‘hunger,’ ‘desire to eat and’ fullness' (Stubbs et al., “The use of visual analogue scales to assess motivation to eat in human subjects: a review of their reliability and validity with an evaluation of new hand-held computerized systems for temporal tracking of hunger ratings”, Br J Nutr, 2000, 84(4):405-15). Each drink contained 1.9 kCal/kg of pHB (as ketone ester) or dextrose. Drinks were diluted to 500 ml with a commercially available citrus-flavoured drink containing 65 kCal ([…] of carbohydrate) (Glaceau, UK). The dextrose drink was taste-matched using a bitterness additive (Symrise, Holzminden, Germany). Prism6™ software was used for statistical analysis. VAS scores were measured as a distance (mm), and normalised by taking the baseline distance for each visit as ‘0’. Values are means±SEM with significance at p<0.05. […] Correlations were calculated using a two-tailed Pearson's test with a 95% confidence interval.
# [5] = tested on: total ghrelin; assay: Plasma total ghrelin after study drink (ELISA); assay type: in vivo, human
# Experimental: A randomised, single-blinded, cross-over study examined the effects of isocaloric ketone ester (KE) and dextrose drinks hunger in healthy, normal-weight participants (n=15) (FIG. 1A). An external Research Ethics Committee (14/LO/0288) approved the study, which was conducted at the University of Oxford in accordance with the Declaration of Helsinki. Participants were healthy, aged 21-42 and with no history of major illness (Anthropometric characteristics in Table 1). Participants provided written informed consent prior to inclusion. Drink order was randomised prior to commencement. Participants refrained from alcohol and caffeine for 24 h prior to each visit and consumed an identical evening meal, at the same time before each visit. Testing started at 0800 h following an overnight (>8 h) fast, with a minimum of 72 h between visits. Venous blood samples (2 ml) were obtained using a 22G catheter inserted into an antecubital vein. Fasting blood samples were collected prior to all interventions and then at regular intervals for 4 h following the study drink. At identical time points, participants completed a validated three-measure visual-analogue-scale (VAS) to assess ‘hunger,’ ‘desire to eat and’ fullness' (Stubbs et al., “The use of visual analogue scales to assess motivation to eat in human subjects: a review of their reliability and validity with an evaluation of new hand-held computerized systems for temporal tracking of hunger ratings”, Br J Nutr, 2000, 84(4):405-15). Each drink contained 1.9 kCal/kg of pHB (as ketone ester) or dextrose. Drinks were diluted to 500 ml with a commercially available citrus-flavoured drink containing 65 kCal (5 g of carbohydrate) (Glaceau, UK). The dextrose drink was taste-matched using a bitterness additive (Symrise, Holzminden, Germany). Blood pHB was measured using a handheld monitor and reagent strips (Precision Xtra, Abbott Diabetes Care, UK). Blood samples were stored on ice, centrifuged and duplicate plasma aliquots stored at −80° C. and analysed within 6 weeks. Plasma glucose was assayed using a commercial analyzer (ABX Pentra, France), whereas insulin, total ghrelin, GLP-1 and PYY were measured using commercially available ELISA assays (Mercodia, Sweden and Merck Millipore, Germany).
# [6] = tested on: insulin; assay: Plasma insulin after study drink (ELISA); assay type: in vivo, human
# Experimental: as §1
# [7] = General findings on esters: circulating (R)-3-hydroxybutyrate, gut uptake; assay type: in vivo
# [8] = tested on: plasma ghrelin; assay: General finding on esters: plasma ghrelin levels; settings: in vivo
# [9] = tested on: appetite; settings: rats; cited from earlier work
molecule,measurement,setting,value
C[C@@H](O)CCOC(=O)C[C@@H](C)O [KE],Plasma glucose levels,"[1]; 30 min after drink, mean±SEM",5.1 ± 0.2 mM
same,"plasma glucose, difference between KE and dextrose drinks",[1]; after 90 min,no significant differences
same,plasma PYY levels,[2],57 pg/mL
same,plasma GLP-1 levels,[3],5 pg/mL
same,Perceived 'Fullness',[4]; KE vs dextrose drinks,the same
same,'desire to eat' lowered compared to dextrose drinks,[4]; for 1.5 to 4 h after drink,−50%
same,perception of 'hunger' lowered compared to dextrose drinks,[4]; for 1.5 to 4 h after drink,−50%
same,plasma ghrelin,[5]; 1 h following drink,320 pg/mL
same,Total ghrelin AUC lower with KE vs. dextrose,[5]; 4 h after drink,17%
same,Total ghrelin AUC,"[5]; 4 h after drink, mean±SEM",86 ± 6 ng·min/mL
same,plasma ghrelin lower than after dextrose,[5]; between 2-4 h post-drink,> 100 pg/mL
same,Plasma insulin levels,"[6]; 30 min after drink, mean±SEM",13±2 mU/L
same,"plasma insulin, difference between KE and dextrose drinks",[6]; after 90 min,no significant differences
(R)-3-hydroxybutyrate-glycerol partial ester,uptake in the gut,[7]; in vivo,surprisingly high level of uptake
same,circulating levels of (R)-3-hydroxybutyrate in the blood,[7]; upon consumption of a drink,high circulating levels
same,plasma ghrelin levels,[8],reduce plasma ghrelin levels
"C[C@@H](O)CCOC(=O)C[C@@H](C)O [(R)-3-hydroxybutyrate (R)-1,3-butanediol monoester]",circulating levels of (R)-3-hydroxybutyrate in the blood,[7]; in vivo,high circulating levels
same,uptake in the gut,[7]; in vivo,surprisingly high level of uptake
same,plasma ghrelin levels,[8],reduce plasma ghrelin levels
CC(O)CCOC(=O)CC(C)O (centres unmarked) [3-hydroxybutyl 3-hydroxybutyrate],appetite,[9],suppress appetite
